Assay results reported in patent US9359378B2, “Substituted oxazolo[3,4-a]pyrazines as pharmaceutcals” (BIOLAB SANUS FARMACÊUTICA LTDA., priority 2014, dated 2016).

How the values were obtained:
[1] = tested on: rabbit's corpus cavernosum; assay: Relaxing effect in isolated rabbit's corpus cavernosum strips pre-contracted with phenylephrine (isometric tension); design: species or system New Zealand White rabbits; details: for tissue relaxation of phenylephrine-contracted corpus cavernosum: 1 μM compound, contraction induced by 1 μM phenylephrine (PE), FIGS. 8-10; for percentage of relaxation in rabbit's corpus cavernosum: FIGS. 12 and 13
Experimental: For this study, New Zealand White rabbits (2 to 3.5 kg) were used to obtain penile tissue which was excised and transferred to a chilled Krebs solution. For this study, we used cavernosum strips (CC) of the penile tissue of New Zealand White rabbits. The strips were mounted in 10 ml tissue incubation chambers containing Krebs solution at 37° C., pH occurring between 7.3 and 7.5; continuously bubbled with a mixture of 95% oxygen (O2) and 5% carbon dioxide (CO2). An initial tension of 10 mN were applied on the tissues, followed by a 60 minute stabilization period. Changes in tension (isometric force) were obtained using isometric transducers (ADInstruments, Australia) and recorded in a data acquisition system PowerLab 4/30 (Chart Software, version 7.3.7, ADInstruments, MA, USA for BL-230 and version 7.0 ADInstruments, MA for the BL-236). […] Cumulative curve responses to the concentration of BL-230 compounds and tadalafil (0.001 to 10 μM) were obtained in the pre-contracted rabbit corpus cavernosum strips with 1 μM PE.

PDE6 = target: T1, PDE6 (Bos taurus, UniProt P11541+P23439); assay: PDE6 enzyme inhibition (SPA, enzyme isolated from bovine retina); format: biochemical; details: FIGS. 14 and 15, test concentration not given
T1 construct: using an enzyme isolated from Cerep bovine retina; tissue Cerep; host or cells: bovine retina
T1 sequence (P11541 2-856 limits assumed): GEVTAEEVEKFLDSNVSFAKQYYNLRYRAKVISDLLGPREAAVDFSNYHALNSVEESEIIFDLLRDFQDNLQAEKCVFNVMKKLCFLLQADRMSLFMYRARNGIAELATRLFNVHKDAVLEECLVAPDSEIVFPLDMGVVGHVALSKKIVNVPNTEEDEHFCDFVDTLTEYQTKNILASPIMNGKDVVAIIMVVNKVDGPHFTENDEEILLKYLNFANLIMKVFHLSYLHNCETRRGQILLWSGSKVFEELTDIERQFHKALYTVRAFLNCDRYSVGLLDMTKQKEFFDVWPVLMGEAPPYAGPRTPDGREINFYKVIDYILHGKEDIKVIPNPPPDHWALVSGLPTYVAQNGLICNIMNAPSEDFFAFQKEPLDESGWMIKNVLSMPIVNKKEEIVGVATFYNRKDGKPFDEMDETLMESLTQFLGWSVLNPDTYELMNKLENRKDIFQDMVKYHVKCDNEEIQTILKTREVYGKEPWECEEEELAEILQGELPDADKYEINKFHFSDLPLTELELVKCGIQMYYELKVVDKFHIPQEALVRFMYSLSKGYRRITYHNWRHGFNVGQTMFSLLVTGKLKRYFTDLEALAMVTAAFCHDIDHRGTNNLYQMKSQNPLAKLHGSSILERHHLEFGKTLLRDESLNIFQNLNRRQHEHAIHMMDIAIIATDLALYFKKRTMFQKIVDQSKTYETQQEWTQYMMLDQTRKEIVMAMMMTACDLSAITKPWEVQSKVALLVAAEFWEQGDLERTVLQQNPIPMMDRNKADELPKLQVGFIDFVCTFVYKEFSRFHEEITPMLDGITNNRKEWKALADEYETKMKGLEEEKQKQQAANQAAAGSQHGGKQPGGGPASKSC
T1 sequence (P23439 2-850 limits assumed): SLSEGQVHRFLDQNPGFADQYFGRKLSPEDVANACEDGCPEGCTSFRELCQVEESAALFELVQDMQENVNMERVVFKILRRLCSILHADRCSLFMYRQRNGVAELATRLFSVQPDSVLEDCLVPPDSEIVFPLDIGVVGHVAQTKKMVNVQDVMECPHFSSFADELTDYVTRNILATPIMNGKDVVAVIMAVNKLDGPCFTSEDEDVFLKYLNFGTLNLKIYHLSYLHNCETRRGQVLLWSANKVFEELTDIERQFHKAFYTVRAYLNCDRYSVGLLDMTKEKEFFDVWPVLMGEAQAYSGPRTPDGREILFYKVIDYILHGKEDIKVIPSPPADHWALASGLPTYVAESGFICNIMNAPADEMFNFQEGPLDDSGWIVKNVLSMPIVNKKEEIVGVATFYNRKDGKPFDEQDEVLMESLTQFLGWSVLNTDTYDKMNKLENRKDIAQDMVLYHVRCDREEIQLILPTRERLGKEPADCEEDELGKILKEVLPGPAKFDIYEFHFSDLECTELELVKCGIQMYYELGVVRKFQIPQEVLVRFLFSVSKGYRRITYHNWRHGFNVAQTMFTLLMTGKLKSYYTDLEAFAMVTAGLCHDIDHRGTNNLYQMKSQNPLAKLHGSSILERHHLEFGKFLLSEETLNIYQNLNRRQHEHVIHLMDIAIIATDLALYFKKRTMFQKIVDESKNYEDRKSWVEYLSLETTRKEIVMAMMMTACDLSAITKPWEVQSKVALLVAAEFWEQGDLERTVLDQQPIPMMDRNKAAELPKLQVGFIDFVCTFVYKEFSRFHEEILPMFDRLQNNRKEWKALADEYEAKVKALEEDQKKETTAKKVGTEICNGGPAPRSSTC
Experimental: The effects of compounds BL-230 and BL-236 on PDE6 human enzyme activity were quantified by measuring the production of 5′GMP from cGMP, using an enzyme isolated from Cerep bovine retina of and the detection method used was scintillation proximity assay (SPA).
The test compound, the reference compound or water (control) were added to a buffer containing 40 mM Tris-HCl (pH 7.8), 3 mM MgCl2, 1.4 mM DTT, 0.21% BSA, 200 mM NH4Cl, 2 uM cGMP and 0.05 μCi of [^3H] cGMP. Then the reaction was started by adding the enzyme (final amount depending on the efficiency of the isolation) and the mixture was incubated for 60 minutes at 22° C. For basal control measurements, the enzyme was omitted from the reaction mixture. Following this, the SPA incubation beads were added. After 20 minutes at 22° C. under agitation, the amount of [^3H] 5′GMP was quantified with a scintillation counter (Topcount, Packard). The results were expressed as an inhibition percentage of the control enzyme activity. The standard inhibitory reference compound zaprinast was used, which was tested in each experiment at several concentrations to obtain an inhibition curve from which its IC50 value was calculated. […]

[2] = strips pre-contracted with 1 μM PE

| Compound | tissue relaxation of phenylephrine-contracted corpus cavernosum [1] | cumulative concentration-response relaxation ([1]; 0.001 to 10 μM, strips pre-contracted with 1 μM PE, FIG. 11) | percentage of relaxation in rabbit's corpus cavernosum [1, 2] | inhibition of PDE6 enzyme activity (PDE6) |
| --- | --- | --- | --- | --- |
| O=C1C2=C(c3c[nH]c4ccccc34)OC(c3ccc4c(c3)OCO4)N2C(=O)CN1CCO (stereo not shown) [BL-230, 3-(benzo[d][1,3]dioxol-5yl)-7-(2-hydroxyethyl)-1-(1H-indol-3-yl)-6,7-dihydro-3H-oxazolo[3,4-a]pyrazine-5,8-dione] | produced tissue relaxation shape similar to that of tadalafil | dose-dependent relaxation similar to that observed for tadalafil | 78.47% | 85% |
| C[C@@H](CO)N1CC(=O)N2C(=C(c3c[nH]c4ccccc34)OC2c2ccc3c(c2)OCO3)C1=O (stereo partly drawn) [BL-236, 3-(benzo[d][1,3]dioxol-5yl)-7-((S)1-hydroxypropan-2yl)-1-(1H-indol-3-yl)-6,7-dihydro-3H-oxazolo[3,4-a]pyrazine-5,8-dione] | produced tissue relaxation shape similar to that of tadalafil | – | 93.05% | 90% |
